From patent US10457655B2, “Compounds and compositions for inhibition of FASN” (FORMA Therapeutics, Inc., priority 2013, dated 2019)

Experiments:
FASN enzyme = FASN enzyme (Homo sapiens, UniProt P49327); experiment: Enzymatic Assay for FASN Inhibitors; type: biochemical
Summary of the method: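 40 nM FASN preincubated with compound 60 min at 25° C in HEPES pH 7.3 buffer with 0.04% Triton X-100. Then 20 μM acetyl-CoA, 60 μM malonyl-CoA and 100 μM NADPH added for 90 min, quenched with CPM thiol probe; fluorescence 360/530 nm, IC50 by four-parameter fit.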

PC3 cells = experiment: Cell Proliferation Assays for FASN Inhibitors (PC3 cells, MTT); type: cell-based; details: Homo sapiens, PC-3, 96 h, read-out: IC50 (uM) < 0.5, 10% lipid reduced serum, 4 days, Table 3-1
Summary of the method: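 PC3 cells seeded overnight, then exposed to compound for 4 days at 37 °C in F12K with 10% lipid-reduced serum, 0.1% final DMSO. Viability read by MTT; IC50 from four-parameter logistic fit of dose–response.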

Sequence of FASN enzyme (P49327 whole entry): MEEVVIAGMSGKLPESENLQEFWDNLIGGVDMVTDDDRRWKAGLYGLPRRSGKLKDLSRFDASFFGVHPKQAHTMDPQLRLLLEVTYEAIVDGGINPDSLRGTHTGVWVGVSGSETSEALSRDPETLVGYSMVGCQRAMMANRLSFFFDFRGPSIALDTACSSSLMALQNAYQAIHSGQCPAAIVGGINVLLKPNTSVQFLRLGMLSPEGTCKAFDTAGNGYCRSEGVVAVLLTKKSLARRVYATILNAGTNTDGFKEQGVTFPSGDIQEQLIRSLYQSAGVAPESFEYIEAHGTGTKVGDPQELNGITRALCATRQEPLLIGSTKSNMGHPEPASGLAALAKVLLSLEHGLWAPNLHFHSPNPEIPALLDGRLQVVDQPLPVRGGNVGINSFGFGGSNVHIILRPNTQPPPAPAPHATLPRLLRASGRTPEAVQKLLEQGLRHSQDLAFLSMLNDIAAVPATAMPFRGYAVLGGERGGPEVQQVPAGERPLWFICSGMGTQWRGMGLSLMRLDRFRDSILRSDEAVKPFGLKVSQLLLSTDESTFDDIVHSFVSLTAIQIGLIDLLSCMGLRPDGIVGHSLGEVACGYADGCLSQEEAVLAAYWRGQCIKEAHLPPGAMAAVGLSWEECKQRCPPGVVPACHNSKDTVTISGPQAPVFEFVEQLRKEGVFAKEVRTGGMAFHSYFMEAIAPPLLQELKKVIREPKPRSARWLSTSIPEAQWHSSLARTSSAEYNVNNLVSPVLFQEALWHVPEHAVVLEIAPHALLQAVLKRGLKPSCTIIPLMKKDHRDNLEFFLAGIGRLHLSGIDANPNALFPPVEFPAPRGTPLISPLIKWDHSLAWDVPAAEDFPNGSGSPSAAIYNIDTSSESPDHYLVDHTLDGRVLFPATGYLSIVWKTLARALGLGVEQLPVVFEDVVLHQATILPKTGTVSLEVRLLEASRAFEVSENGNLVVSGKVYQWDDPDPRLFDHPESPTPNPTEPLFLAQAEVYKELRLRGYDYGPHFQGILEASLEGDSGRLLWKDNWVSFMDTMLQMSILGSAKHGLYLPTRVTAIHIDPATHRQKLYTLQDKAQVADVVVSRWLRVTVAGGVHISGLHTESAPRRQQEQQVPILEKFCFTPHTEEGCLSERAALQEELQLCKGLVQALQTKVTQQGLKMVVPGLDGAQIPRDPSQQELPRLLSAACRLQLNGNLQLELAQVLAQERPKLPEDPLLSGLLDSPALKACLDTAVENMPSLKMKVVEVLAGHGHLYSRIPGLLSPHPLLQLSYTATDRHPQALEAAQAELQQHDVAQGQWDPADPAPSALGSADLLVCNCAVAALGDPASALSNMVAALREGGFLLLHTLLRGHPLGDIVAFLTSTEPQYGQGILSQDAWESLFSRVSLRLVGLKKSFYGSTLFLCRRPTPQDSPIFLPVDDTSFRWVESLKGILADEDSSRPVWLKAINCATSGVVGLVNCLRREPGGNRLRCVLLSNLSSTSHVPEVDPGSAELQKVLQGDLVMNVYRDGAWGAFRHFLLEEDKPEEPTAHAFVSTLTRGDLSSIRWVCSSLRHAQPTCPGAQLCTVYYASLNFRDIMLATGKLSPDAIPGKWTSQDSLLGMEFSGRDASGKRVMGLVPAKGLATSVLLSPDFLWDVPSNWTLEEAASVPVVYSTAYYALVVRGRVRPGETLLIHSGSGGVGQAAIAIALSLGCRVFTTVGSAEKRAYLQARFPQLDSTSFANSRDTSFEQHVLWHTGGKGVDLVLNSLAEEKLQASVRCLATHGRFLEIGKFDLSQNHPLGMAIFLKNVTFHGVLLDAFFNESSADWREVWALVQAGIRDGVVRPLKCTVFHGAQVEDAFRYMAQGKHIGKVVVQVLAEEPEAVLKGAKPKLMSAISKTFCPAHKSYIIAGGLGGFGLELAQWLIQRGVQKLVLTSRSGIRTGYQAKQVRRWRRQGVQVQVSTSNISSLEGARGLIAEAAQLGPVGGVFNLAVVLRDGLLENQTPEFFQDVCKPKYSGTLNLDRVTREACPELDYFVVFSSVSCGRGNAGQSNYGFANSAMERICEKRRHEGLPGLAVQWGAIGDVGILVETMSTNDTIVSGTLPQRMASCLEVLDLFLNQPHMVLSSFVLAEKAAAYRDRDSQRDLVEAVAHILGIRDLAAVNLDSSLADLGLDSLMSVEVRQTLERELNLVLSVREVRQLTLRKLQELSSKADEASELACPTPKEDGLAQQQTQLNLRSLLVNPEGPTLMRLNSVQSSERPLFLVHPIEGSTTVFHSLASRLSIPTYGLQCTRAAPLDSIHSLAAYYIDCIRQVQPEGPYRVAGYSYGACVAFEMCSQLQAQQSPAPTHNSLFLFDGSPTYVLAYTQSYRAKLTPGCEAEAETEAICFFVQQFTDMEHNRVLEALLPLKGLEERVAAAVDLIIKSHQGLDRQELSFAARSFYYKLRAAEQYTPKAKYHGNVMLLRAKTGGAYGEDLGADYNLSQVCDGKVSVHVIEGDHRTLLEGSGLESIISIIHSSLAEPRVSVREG

IC50 (FASN enzyme) [nM] | IC50 (PC3 cells) [µM] | Structure (SMILES)
< 500 | < 0.5 | O=C(c1ccc(-c2cccc(NS(=O)(=O)C3CC3)c2)cc1)N1CCN(C(=O)C2(O)CC2)CC1 [N-{3-[4-({4-[(1-hydroxycyclopropyl)carbonyl]piperazin-1-yl}carbonyl)phenyl]phenyl}cyclopropanesulfonamide]
< 500 | < 0.5 | CS(=O)(=O)Nc1cccc(-c2ccc(C(=O)N3CCN(C(=O)C4(O)CC4)CC3)cc2)c1 [N-{3-[4-({4-[(1-hydroxycyclopropyl)carbonyl]piperazin-1-yl}carbonyl)phenyl]phenyl}methanesulfonamide]
